Results from article PMC9069370, “Integrated Design of a Membrane‐Lytic Peptide‐Based Intravenous Nanotherapeutic Suppresses Triple‐Negative Breast Cancer” (Advanced Science, 2022).
Peptide text beside a SMILES is read from it.

How the values were obtained:
HEK293T = assay: cells; assay type: cell-based, human; details: 72 h
MCF‐10A = assay: cells; assay type: cell-based, human; details: 72 h
Excerpt: (§1) […], and MCF-10A cells were maintained in MEGM with supplements and growth factors bovine pituitary extract, hydrocortisone, human epidermal growth factor, insulin, and gentamicin/amphotericin-B.

HMLER‐shEcad = assay: cells; assay type: cell-based, human; details: 72 h
Excerpt: as §1

HMLER = assay: cells; assay type: cell-based, human; details: 72 h
Excerpt: as §1

[1] = Tryptophan fluorescent binding assay; details: tryptophan fluorescence; 50 µM peptide, lipid titrated 0-5000 µM; phosphate buffered saline 1X, pH 7.4; values as lipid per peptide
Protocol: 50 µM ACP peptides and varied concentrations (concentrations: 0, 25, 50, 100, 150, 200, 250, 500, 1250, and 2500 µM) of POPC or POPC:POPG (3:1 ratio) large unilamellar vesicles were prepared in 10 mM phosphate buffer (pH 7.0). The solutions were measured after 1 h of incubation. Excitation was fixed at 280 nm (slit 9 nm) and emission was collected from 300 to 450 nm (slit 9 nm). The spectra were recorded using Cytation 5 Cell Imaging Multi‐Mode Reader from BioTek and were averaged by three scans.
Lipid Concentration-induced
Name Sequence† 50% Peptide Binding (L/P)
Extended Data Table 3 | Tryptophan binding assay. […]
peptide binding onto liposome. 50 µM peptides were fixed and incubated with titrated lipid (POPC vesicle […]
phosphate buffered saline (1X, pH 7.4). The lipid concentration that causes 50 % peptide binding was determined using tryptophan fluorescent binding assay and the values are shown as lipid per peptide.

[2] = ANTS/DPX liposome leakage assay; details: 0.5 mM vesicles, peptide 0-20 µM, 3 h incubation, lipid per peptide; for Peptide Concentration-induced 50 % ANTS/DPX leakage at pH 4.8 (L/P), 3POPC/1POPG Vesicle / Peptide Concentration-induced 50 % ANTS/DPX leakage at pH 4.8 (L/P), POPC Vesicle: HCl-adjusted PBS 1X pH 4.8; for Peptide Concentration-induced 50 % ANTS/DPX leakage at pH 7.4 (L/P), 3POPC/1POPG Vesicle / Peptide Concentration-induced 50 % ANTS/DPX leakage at pH 7.4 (L/P), POPC Vesicle: PBS 1X pH 7.4, high ratio = more potent
Protocol: Vesicle preparation: 5 mM ANTS and 12.5 mM DPX were entrapped in 0.1 µm diameter extruded vesicles (either POPC or POPC/POPG at a ratio of 3:1) with lipids. Gel filtration chromatography of Sephadex G‐100 was used to remove external free ANTS/DPX from LUVs with entrapped contents. LUVs were diluted to 0.5 mM and used to measure the leakage activity by the addition of aliquots of ACPs. Leakage was measured after 3 h incubation. 10% Triton was used as the positive control to measure the maximum leakage of the vesicle. Fluorescence emission spectra were recorded using excitation and emission wavelength of 350 and 510 nm for ANTS/DPX using a BioTek Synergy H1 Hybrid Multi‐Mode Reader.
Peptide Concentration-induced Peptide Concentration-induced
Name Sequence† 50 % ANTS/DPX leakage 50 % ANTS/DPX leakage at pH 7.4 (L/P) at pH 4.8 (L/P)
POPC Vesicle 3POPC/1POPG Vesicle POPC Vesicle 3POPC/1POPG Vesicle […]
Extended Data Table 4 | Peptide concentration-induced 50 % ANTS/DPX liposome leakage. 0.5 mM POPC and 3POPC/1POPG vesicles were fixed and incubated with titrated peptide concentration (0, 0.02, […]
hydrochloric acid-adjusted phoshate buffered saline (1X, pH 4.8). The values are shown as lipid per

U2OS = assay type: cell-based, human; details: 72 h

| Structure (SMILES) | IC50 (MCF‐10A) [µM] | IC50 (HMLER‐shEcad) [µM] | IC50 (HMLER) [µM] | Lipid Concentration-induced 50% Peptide Binding (L/P), 3POPC/1POPG Vesicle [1] [L/P] | Lipid Concentration-induced 50% Peptide Binding (L/P), POPC Vesicle [1] [L/P] | IC50 (U2OS) [µM] | IC50 (HEK293T) [µM] | Peptide Concentration-induced 50 % ANTS/DPX leakage at pH 4.8 (L/P), 3POPC/1POPG Vesicle [2] [L/P] | Peptide Concentration-induced 50 % ANTS/DPX leakage at pH 4.8 (L/P), POPC Vesicle [2] [L/P] | Peptide Concentration-induced 50 % ANTS/DPX leakage at pH 7.4 (L/P), 3POPC/1POPG Vesicle [2] [L/P] | Peptide Concentration-induced 50 % ANTS/DPX leakage at pH 7.4 (L/P), POPC Vesicle [2] [L/P] |
| --- | --- | --- | --- | --- | --- | --- | --- | --- | --- | --- | --- |
| CC(C)C[C@H](NC(=O)CN)C(=O)N[C@@H](CC(C)C)C(=O)N[C@@H](CC(=O)O)C(=O)N[C@@H](CC(C)C)C(=O)N[C@@H](CC(C)C)C(=O)N[C@@H](Cc1c[nH]cn1)C(=O)N[C@@H](CC(C)C)C(=O)N[C@@H](CC(C)C)C(=O)N[C@@H](CC(C)C)C(=O)N[C@@H](CCC(=O)O)C(=O)N[C@@H](C)C(=O)N[C@@H](C)C(=O)NCC(=O)N[C@@H](Cc1c[nH]c2ccccc12)C(N)=O [DHE] (H-GLLDLLHLLLEAAGW-NH2) | 22.7 ± 4.31 | 2.8 ± 0.14 | 3.75 ± 0.92 | 0.72 | 1.00 | 17.2 ± 1.06 | 11.1 ± 1.91 | 469 | 58 | 581 | 566 |
| CC(C)C[C@H](NC(=O)CN)C(=O)N[C@@H](CC(C)C)C(=O)N[C@@H](CC(=O)O)C(=O)N[C@@H](CC(C)C)C(=O)N[C@@H](CC(C)C)C(=O)N[C@@H](CCCCN)C(=O)N[C@@H](CC(C)C)C(=O)N[C@@H](CC(C)C)C(=O)N[C@@H](CC(C)C)C(=O)N[C@@H](CCCCN)C(=O)N[C@@H](C)C(=O)N[C@@H](C)C(=O)NCC(=O)N[C@@H](Cc1c[nH]c2ccccc12)C(N)=O [DKK] (H-GLLDLLKLLLKAAGW-NH2) | 2.57 ± 0.52 | 1.2 ± 0.14 | 1.95 ± 0.35 | 6.88 | 2.75 | 10.4 ± 1.7 | 3.4 ± 0.28 | 227 | 47 | 156 | 463 |
| CC(C)C[C@H](NC(=O)CN)C(=O)N[C@@H](CC(C)C)C(=O)N[C@@H](CC(=O)O)C(=O)N[C@@H](CC(C)C)C(=O)N[C@@H](CC(C)C)C(=O)N[C@@H](CCCCN)C(=O)N[C@@H](CC(C)C)C(=O)N[C@@H](CC(C)C)C(=O)N[C@@H](CC(C)C)C(=O)N[C@@H](CCC(=O)O)C(=O)N[C@@H](C)C(=O)N[C@@H](C)C(=O)NCC(=O)N[C@@H](Cc1c[nH]c2ccccc12)C(N)=O [DKE] (H-GLLDLLKLLLEAAGW-NH2) | 4.75 ± 0.49 | 1.57 ± 0.33 | 2.1 | 0.46 | 0.56 | 9.93 ± 0.25 | 7.8 ± 1.41 | 469 | 21 | 411 | 747 |
| CC(C)C[C@H](NC(=O)CN)C(=O)N[C@@H](CC(C)C)C(=O)N[C@@H](CCC(=O)O)C(=O)N[C@@H](CC(C)C)C(=O)N[C@@H](CC(C)C)C(=O)N[C@@H](CCCCN)C(=O)N[C@@H](CC(C)C)C(=O)N[C@@H](CC(C)C)C(=O)N[C@@H](CC(C)C)C(=O)N[C@@H](CCCCN)C(=O)N[C@@H](C)C(=O)N[C@@H](C)C(=O)NCC(=O)N[C@@H](Cc1c[nH]c2ccccc12)C(N)=O [EKK] (H-GLLELLKLLLKAAGW-NH2) | 1.7 ± 0.11 | 1.19 ± 0.4 | 1.72 ± 0.21 | 0.63 | 1.50 | 12.2 ± 1.84 | 3.35 ± 0.49 | 219 | 60 | 235 | 1095 |

More lines, main results first:

| IC50 (MCF‐10A) [µM] | IC50 (HMLER‐shEcad) [µM] | IC50 (HMLER) [µM] | Lipid Concentration-induced 50% Peptide Binding (L/P), 3POPC/1POPG Vesicle [1] [L/P] | Lipid Concentration-induced 50% Peptide Binding (L/P), POPC Vesicle [1] [L/P] | IC50 (U2OS) [µM] | Structure (SMILES) | IC50 (HEK293T) [µM] | Peptide Concentration-induced 50 % ANTS/DPX leakage at pH 4.8 (L/P), 3POPC/1POPG Vesicle [2] [L/P] | Peptide Concentration-induced 50 % ANTS/DPX leakage at pH 4.8 (L/P), POPC Vesicle [2] [L/P] | Peptide Concentration-induced 50 % ANTS/DPX leakage at pH 7.4 (L/P), 3POPC/1POPG Vesicle [2] [L/P] | Peptide Concentration-induced 50 % ANTS/DPX leakage at pH 7.4 (L/P), POPC Vesicle [2] [L/P] |
| --- | --- | --- | --- | --- | --- | --- | --- | --- | --- | --- | --- |
| 58 ± 41 | 4.95 ± 0.49 | 6.5 ± 0.71 | 0.50 | 0.58 | 47.5 ± 11 | CC(C)C[C@H](NC(=O)CN)C(=O)N[C@@H](CC(C)C)C(=O)N[C@@H](Cc1c[nH]cn1)C(=O)N[C@@H](CC(C)C)C(=O)N[C@@H](CC(C)C)C(=O)N[C@@H](CCC(=O)O)C(=O)N[C@@H](CC(C)C)C(=O)N[C@@H](CC(C)C)C(=O)N[C@@H](CC(C)C)C(=O)N[C@@H](CCC(=O)O)C(=O)N[C@@H](C)C(=O)N[C@@H](C)C(=O)NCC(=O)N[C@@H](Cc1c[nH]c2ccccc12)C(N)=O [HEE] (H-GLLHLLELLLEAAGW-NH2) | 10.2 ± 0.2 | 122 | 100 | 792 | 876 |
| 2.18 ± 0.39 | 2.6 ± 0.42 | 3.4 ± 0.71 | 0.14 | 0.18 | 12.23 ± 0.11 | CC(C)C[C@H](NC(=O)CN)C(=O)N[C@@H](CC(C)C)C(=O)N[C@@H](Cc1c[nH]cn1)C(=O)N[C@@H](CC(C)C)C(=O)N[C@@H](CC(C)C)C(=O)N[C@@H](CCCCN)C(=O)N[C@@H](CC(C)C)C(=O)N[C@@H](CC(C)C)C(=O)N[C@@H](CC(C)C)C(=O)N[C@@H](CCCCN)C(=O)N[C@@H](C)C(=O)N[C@@H](C)C(=O)NCC(=O)N[C@@H](Cc1c[nH]c2ccccc12)C(N)=O [HKK] (H-GLLHLLKLLLKAAGW-NH2) | 9.5 ± 0.99 | 106 | 106 | 90 | 657 |
| 1.81 ± 0.05 | 1.4 ± 0.14 | 2.59 ± 0.92 | 0.38 | 0.17 | 12.9 ± 1.24 | CC(C)C[C@H](NC(=O)CN)C(=O)N[C@@H](CC(C)C)C(=O)N[C@@H](CCCCN)C(=O)N[C@@H](CC(C)C)C(=O)N[C@@H](CC(C)C)C(=O)N[C@@H](Cc1c[nH]cn1)C(=O)N[C@@H](CC(C)C)C(=O)N[C@@H](CC(C)C)C(=O)N[C@@H](CC(C)C)C(=O)N[C@@H](CCCCN)C(=O)N[C@@H](C)C(=O)N[C@@H](C)C(=O)NCC(=O)N[C@@H](Cc1c[nH]c2ccccc12)C(N)=O [KHK] (H-GLLKLLHLLLKAAGW-NH2) | 3.55 ± 0.78 | 53 | 140 | 193 | 1153 |
| > 200 | 10.8 ± 0.78 | 16.7 ± 2.26 | 0.75 | 1.00 | 53.2 ± 5.3 | CC(C)C[C@H](NC(=O)CN)C(=O)N[C@@H](CC(C)C)C(=O)N[C@@H](Cc1c[nH]cn1)C(=O)N[C@@H](CC(C)C)C(=O)N[C@@H](CC(C)C)C(=O)N[C@@H](Cc1c[nH]cn1)C(=O)N[C@@H](CC(C)C)C(=O)N[C@@H](CC(C)C)C(=O)N[C@@H](CC(C)C)C(=O)N[C@@H](CCC(=O)O)C(=O)N[C@@H](C)C(=O)N[C@@H](C)C(=O)NCC(=O)N[C@@H](Cc1c[nH]c2ccccc12)C(N)=O [HHE] (H-GLLHLLHLLLEAAGW-NH2) | 18.4 ± 3.75 | 113 | 143 | 411 | 842 |
